The values that follow come from article PMC3914206.

The structures appear in SMILES notation.

What all share (assay type): binding
Common to all, as to conditions: Compound Concentration 10 µM

Experiment [1] concerns the target T1, panel of 442 kinases (Homo sapiens, UniProt Q00526).
T1 construct: purchased KINOMEscan
The text has this:
(§1) We assessed the selectivity of members of this scaffold using the KINOMEscan methodology across a near comprehensive panel of 442 kinases [[18,27]].

Experiment [2] addresses T2, panel of 442 kinases (Homo sapiens, UniProt P00519, Q252H).
T2 construct: purchased KINOMEscan
Excerpt: as §1

The target of experiment [3] is T3, panel of 442 kinases (Homo sapiens, UniProt P36896).
T3 construct: purchased KINOMEscan
T3 sequence (P36896 24-505): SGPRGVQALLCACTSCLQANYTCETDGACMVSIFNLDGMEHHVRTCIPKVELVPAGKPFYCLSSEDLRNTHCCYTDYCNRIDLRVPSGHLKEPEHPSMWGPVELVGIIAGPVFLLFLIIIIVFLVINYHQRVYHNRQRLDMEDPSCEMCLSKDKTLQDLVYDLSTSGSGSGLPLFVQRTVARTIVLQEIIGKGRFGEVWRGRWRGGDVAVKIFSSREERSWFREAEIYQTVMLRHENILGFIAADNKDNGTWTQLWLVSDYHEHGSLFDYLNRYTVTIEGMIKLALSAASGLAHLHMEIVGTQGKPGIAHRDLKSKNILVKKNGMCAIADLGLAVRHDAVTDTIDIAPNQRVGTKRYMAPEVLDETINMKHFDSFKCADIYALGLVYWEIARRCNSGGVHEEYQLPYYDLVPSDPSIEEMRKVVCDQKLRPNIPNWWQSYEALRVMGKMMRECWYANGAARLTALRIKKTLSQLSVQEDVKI
Excerpt: as §1

T1 sequence (Q00526 whole entry): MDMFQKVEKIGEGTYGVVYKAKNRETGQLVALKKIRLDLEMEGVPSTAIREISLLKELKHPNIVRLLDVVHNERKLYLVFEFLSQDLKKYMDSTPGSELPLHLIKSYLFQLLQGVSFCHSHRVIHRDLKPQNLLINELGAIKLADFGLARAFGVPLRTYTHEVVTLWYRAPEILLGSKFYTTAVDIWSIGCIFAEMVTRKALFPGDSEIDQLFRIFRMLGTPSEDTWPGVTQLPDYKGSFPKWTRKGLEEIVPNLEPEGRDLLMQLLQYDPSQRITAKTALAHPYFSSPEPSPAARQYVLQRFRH

For the compound `CCOc1cc(C(=O)N2CCC(N3CCN(C)CC3)CC2)ccc1Nc1ncc2c(n1)N(C1CCCC1)c1ccccc1C(=O)N2C` [Compound 26], at panel of 442 kinases [1], the “KINOMEscan: CDK3” value came to 100. Also, at panel of 442 kinases [2], the “KINOMEscan: ABL1(Q252H)-nonphosphorylated” value is on record as 100 and the “KINOMEscan: ABL1(Q252H)-phosphorylated” value is listed as 100. Also, the “KINOMEscan: ACVR1B” value on panel of 442 kinases [3] is listed as 100.
For `COc1cc(C(=O)N2CCC(N3CCN(C)CC3)CC2)ccc1Nc1ncc2c(n1)N(C)c1ccccc1C(=O)N2C` [15 (LRRK2-IN-1)], at panel of 442 kinases [1], the “KINOMEscan: CDK3” value worked out at 100. In addition, at panel of 442 kinases [2], the “KINOMEscan: ABL1(Q252H)-nonphosphorylated” value is recorded as 100 and the “KINOMEscan: ABL1(Q252H)-phosphorylated” value is 100. Also, at panel of 442 kinases [3], the “KINOMEscan: ACVR1B” value is 100.
For `COc1cc(C(=O)N2CCC(N3CCN(C)CC3)CC2)ccc1Nc1ncc2c(n1)N(C1CCCC1)c1ccccc1C(=O)N2C` [Compound 25, 11-cyclopentyl-2-((2-methoxy-4-(4-(4-methylpiperazin-1-yl)piperidine-1-carbonyl)phenyl)amino)-5-methyl-5H-benzo[e]pyrimido[5,4-b][1,4]diazepin-6(11H)-one], at panel of 442 kinases [1], the “KINOMEscan: CDK3” value stood at 100. Moreover, on panel of 442 kinases [2], the “KINOMEscan: ABL1(Q252H)-nonphosphorylated” value was 89 and the “KINOMEscan: ABL1(Q252H)-phosphorylated” value was found to be 83. For the same compound, the “KINOMEscan: ACVR1B” value on panel of 442 kinases [3] is 97.
